Source: patent publication US10919889B2, “Chiral heterocyclic compound with hedgehog pathway antagonist activity, method and use thereof” (SUZHOU KINTOR PHARMACEUTICALS, INC., priority 2016, dated 2021)
Entries after “also recorded” stand apart in the source; their conditions may differ.

Test system: primary medulloblastoma of Patched (PTCH)+/−, p53−/− mice
Experiment: Mouse tumor model (tumor inhibition)
Format: in vivo, SCID mice
Settings: 100 mg/kg/day, 14 days
Method: Tumor cells from the primary medulloblastoma of Patched (PTCH)+/−, p53−/− mice were injected subcutaneously into the right side of SCID mice. About 7 days after implantation, treatments were started when the tumor volume grew to an average of 200 mm^3. Animals were randomly divided into blank group, compound B administration group and compound B1 administration group. The doses of compound B1 and racemic compound B were 100 mg/kg/day. Tumor volume […] and body weight (g) were recorded every other day. After 14 days of administration, mice were sacrificed and the tumors were removed.
Primary medulloblastoma (5×10^6) from Patched(PTCH)+/−, p53−/− mice can be […] injected into the right sides of SCID mice. Seven days after the injection, treatment with drugs can start when the average size of tumors reaches 200 mm^3. Subjects can be randomly assigned to the control group, the compound B-treatment group and the compound B1-treatment group. Compounds B and B1 can be administered at dosages of about 100 mg/kg/day. The tumor volume and the body weights of the subjects can be measured and recorded every other day. On the 14th day after the drug administration, the subjects can be sacrificed and their tumors can be removed.

SMILES | effect on tumor volume (in words) | effect on tumor volume (in words) (listed as chiral compound) | effect on tumor volume (in words) (listed as racemic compound)
Cc1cnc(-c2cc(N3CCc4nc(N5CCC(O)CC5)ncc4[C@H]3C)ncc2Cl)c(C)c1 [Compound B1, (R)-1-(6-(5′-chloro-3,5-dimethyl-[2,4′-bipyridin]-2′-yl)-5-methyl-5,6,7,8-tetrahydropyrido[4,3-d]pyrimidin-2-yl)piperidin-4-ol] | reduce the tumor volume to almost disappear; also recorded: may decrease the tumor volume | shrink the tumor volume to almost undetectable | –
Cc1cnc(-c2cc(N3CCc4nc(N5CCC(O)CC5)ncc4C3C)ncc2Cl)c(C)c1 (racemic) [B] | stop the tumor from growing; also recorded: only stopped the growth of tumor; also recorded: may stop the tumors from growing | – | only stop the tumor growth
